Activity calls are given as the source filed them.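 How the source made its calls: active means AC50 no more than ten times the top concentration tested, that is within one log above it; inconclusive means flat curve fit with activity between 30% and 70%, or invalid poor fit; inactive means AC50 beyond ten times the top tested dose.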
System: S. cerevisiae Mot1-301 ts growth rescue, BacTiter-Glo ATP luminescence
Assay: restored Mot1-301 yeast growth at 38.5C – whole organism, S. cerevisiae, Mot1-301 ts mutant, luminescence, dose retest, SUMOylation pathway inhibitor project, confirmation (AID 463204);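 further: growth at restrictive 38.5 degrees C of Mot1-301 OY566 strain; actives raise luminescence by restoring growth of the ts mutant at high temperature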

Compound | AC50
COCCCNS(=O)(=O)c1ccc(Oc2ncc(C(F)(F)F)cc2Cl)cc1 | > 42 µM (inactive)
CN(CP(=O)(O)C(O)c1ccccc1)S(C)(=O)=O (stereo unspecified) | > 42 µM (inactive)
CCCOC(=O)c1c(-c2ccc(OC)cc2)oc2ccc(-c3ccc(OC)nc3)cc12 | > 42 µM (inactive)
COc1ccc(NC(=O)CC(C)C)c(OC)c1 | > 42 µM (inactive)
CNC(=O)Nc1cc(NC(=O)NC)cc(C(F)(F)F)c1 | > 42 µM (inactive)
Cc1ccc(-c2csc(C3=C(O)CN(NC(=O)c4ccco4)C3=N)n2)cc1 | > 42 µM (inactive)
CCOc1ccc(NC(=O)Nc2ccc3nsnc3c2)cc1 | > 42 µM (inactive)
Cc1onc(-c2ccccc2Cl)c1C(=O)N1CCc2ccccc2C1 | 34 µM
O=C(Cn1nc(C(F)(F)F)c2c1CCCC2)N1CCOCC1 | > 42 µM (inactive)
C/C(=N\NC(=O)c1cccc(N/N=C(\C)c2ccc([N+](=O)[O-])cc2)c1)c1ccc([N+](=O)[O-])cc1 | > 42 µM (inactive)
CN(C)C(=O)c1c2c(nc3ccccc13)CCCC2 | > 42 µM (inactive)
CCCCn1c(N)c(N(Cc2ccccc2OC)C(=O)c2c(CC)noc2C)c(=O)[nH]c1=O | > 42 µM (inactive)
On1c(-c2ccccc2Cl)nc2ncccc21 | > 42 µM (inactive)
COCCn1c(=NC(=O)c2ccc(S(=O)(=O)N3CCOCC3)cc2)sc2cc(S(N)(=O)=O)ccc21 | > 42 µM (inactive)
COc1ccc(NC(=O)C2CCCN(C(=O)Nc3cccc(OC)c3)C2)cc1 (stereo unspecified) | > 42 µM (inactive)
CN1C(=S)SC2CS(=O)(=O)CC21C (stereo unspecified) | > 21 µM (inactive)
CC(=O)c1ccccc1C(=O)N1CCCC(N2CCN(Cc3ccc4c(c3)OCO4)CC2)C1 (stereo unspecified) | > 42 µM (inactive)
C=C(C)Cn1c(SCC(=O)N/N=C/c2ccccc2OCC(=O)O)nnc1-c1ccc(Br)cc1 | > 42 µM (inactive)
N#CC1=C(SCC(N)=O)NC(=O)CC1c1ccccc1Cl (stereo unspecified) | 28.4 µM
COc1ccccc1CNC(=O)[C@H](C)NC(=O)C1CCN(C(=O)[C@@H](N)CC(C)C)CC1 | > 42 µM (inactive)
CO/N=C/c1ccc(Oc2ccc(C)cc2)nc1 | > 42 µM (inactive)
COc1ccc(/C=C2/SC(=O)N(NS(=O)(=O)c3ccccc3)C2=S)cc1OC | > 42 µM (inactive)
O=C(CSc1nnc(CNC(=O)c2ccccc2)o1)NCc1ccco1 | > 42 µM (inactive)
Cc1nc2ccccc2c2ncccc12 | > 42 µM (inactive)
O=c1[nH]c(=O)n(C2CCCO2)cc1Br (stereo unspecified) | > 42 µM (inactive)
Cc1ccc(C(=O)N/C(=C\c2cccs2)C(=O)NCCc2c[nH]c3ccccc23)cc1 | > 42 µM (inactive)

Compound | AC50
CC(NC(=O)OCc1ccccc1)C(=O)N1CC(O)CC1C(=O)O (stereo unspecified) | > 21 µM (inactive)
CCOC(=O)c1c(C)n(C)c2cc(-c3ccc(C)cc3)c(O)cc12 | > 42 µM (inactive)
CC1C(=O)CC(c2ccccc2)NC1c1ccccc1 (stereo unspecified) | > 42 µM (inactive)
CCOc1ccc(S(=O)(=O)N2CCN(C(=O)CN3C(=O)NC4(CCCC4)C3=O)CC2)cc1 | > 42 µM (inactive)
Nc1nnc(COc2ccc(Br)cc2Br)s1 | > 42 µM (inactive)
COc1ccc(S(=O)(=O)NC(C)C(=O)NCc2ccccn2)cc1Cl (stereo unspecified) | > 42 µM (inactive)
C/C(CC(=O)Nc1cccc(Cl)c1Cl)=N\NC(=O)c1ccccc1C | > 42 µM (inactive)
C/C(=N\N1CCN(Cc2ccccc2Cl)CC1)c1ccc([N+](=O)[O-])cc1 | > 42 µM (inactive)
CN(C)CCOC(=O)CCc1ccccc1 | > 42 µM (inactive)
CCN(C(=S)NCCOC)c1cccc2ccccc12 | > 42 µM (inactive)
C/C=C(/C)C(=O)OC1c2c(ccc3ccc(=O)oc23)OC(C)(C)C1OC(=O)/C(C)=C\C (stereo unspecified) | > 42 µM (inactive)
CCN(CC)S(=O)(=O)c1ccc(N2CCCC2)c(C(=O)OCC(=O)Nc2cc(C)on2)c1 | > 42 µM (inactive)
CC1CCN(CCCOc2ccc(OCc3ccccc3)cc2)CC1 | > 42 µM (inactive)
CNC(=O)c1ccccc1NC(=O)c1c(O)c2c([nH]c1=O)CCCC2 | > 42 µM (inactive)
COc1ccc(NC(=O)CN(c2ccc(C(C)C)cc2)S(=O)(=O)c2c(C)noc2C)cc1OC | > 42 µM (inactive)
COc1ccc(CC(=O)NCCN2CCOCC2)cc1 | > 42 µM (inactive)
O=c1[nH][nH]c(C(F)(F)F)c1C=NCc1cccs1 | > 42 µM (inactive)
CCN(CC)CCCN1C(=O)C(=O)/C(=C(/O)c2ccccc2)C1c1cc(OC)ccc1OC (stereo unspecified) | > 42 µM (inactive)
Cc1cc(-c2nnc3sc(C4CCCCC4)nn23)n[nH]1 | > 42 µM (inactive)
COc1ccc(OCCC(=O)c2ccc(OC)cc2)cc1 | > 42 µM (inactive)
CCOC(=O)c1oc2c(c1C)C(=O)CCC2 | > 42 µM (inactive)
CC(=O)CSc1ncnc2sc3c(c12)CCCC3 | > 42 µM (inactive)
CSc1ccccc1NC(=O)COc1nsnc1N1CCOCC1 | > 42 µM (inactive)
Oc1c(Br)cc(Br)cc1C=Nc1ccc2[nH]ncc2c1 | 4.76 µM
c1ccc(CNc2ncnc3sc4c(c23)CCC4)nc1 | > 42 µM (inactive)
